Test results: PubChem BioAssay AID1996
≈ marks a conversion by molar mass, not a printed value.

details: buffer; pH 7.4; 200.0 µM

| solubility kinetic [µg/mL] | Structure (SMILES) |
| --- | --- |
| 1 (≈ 3.53 µM) | COc1ccccc1Nc1nc(-c2cccnc2)cs1 |
| > 43.4 | Cc1ccccc1C(=O)NCC(=O)OC1CCCCC1=O (stereo not given) |
| > 37.4 | Cc1cc(NC(=O)CSc2ccccn2)no1 |
| < 0.4 | COc1ccc(C2Nc3ccccc3C(=O)N2Cc2ccccc2)cc1OC (stereo not given) |
| 1.4 (≈ 4.92 µM) | CCOc1nc(-c2ccccc2Cl)nc2ccccc12 |
| > 50.8 | COc1ccc(CNC(=O)CSc2cccc3cccnc23)cc1 |
| 0.8 (≈ 2.68 µM) | N#Cc1ccccc1CN1C(=O)c2ccccc2S1(=O)=O |
| > 36.5 | Nn1c(C2CCCCC2)nc2ccccc2c1=O |
| 44.2 (≈ 130 µM) | O=C(NCCCNC(=O)c1ccco1)c1ccc(Cl)c(Cl)c1 |
| 14.7 (≈ 56.7 µM) | Fc1cccc(F)c1-c1nc(-c2ccncc2)no1 |
| 1.2 (≈ 3.84 µM) | Cc1nc([N+](=O)[O-])cn1CC(=O)Nc1ccc(F)c(Cl)c1 |
| > 33 | Nc1n[nH]c(N)c1N=Nc1ccc(F)cc1 |
| > 44.3 | O=C(NCc1cccnc1)Nc1ccccc1C(F)(F)F |
| 51.2 (≈ 144 µM) | CCc1cccc(CC)c1NC(=O)C1CCN(C(=O)c2ccco2)CC1 |
| 30.7 (≈ 147 µM) | Cc1ccc(NC(=O)CC(N)=S)cc1 |
| > 40.2 | CCOC1OC(=O)C(Cl)=C1Nc1ccc(C)cc1 (stereo not given) |
| 10.6 | CC(C)(C)c1ccc(-c2ncccc2O)cc1.Cl |
| 45.6 (≈ 131 µM) | CCOC(=O)C(=CNc1ccccc1N1CCOCC1)C(=O)OCC |
| 52.2 (≈ 144 µM) | O=C(NCCCNC(=O)c1cnccn1)c1ccc(Br)cc1 |
| > 37.1 | COc1ccccc1NC(=O)Cc1ccsc1 |
| 45.1 (≈ 138 µM) | CC(=O)Nc1nc(C)c(Oc2cccc(C(F)(F)F)c2)c(=O)[nH]1 |
| > 36.5 | CC(NC(=O)c1ccccc1F)c1ccccc1 (stereo not given) |
| 9.6 (≈ 26.1 µM) | COc1ccc(-c2cc(=O)oc3c(C)c(OCC(=O)N(C)C)ccc23)cc1 |
| 44.4 (≈ 128 µM) | CCOc1cccc(CN2CCC(CCC(=O)NC3CC3)CC2)c1O |

| solubility kinetic [µg/mL] | Structure (SMILES) |
| --- | --- |
| > 42.2 | CC(C(=O)O)c1ccc(N2Cc3ccccc3C2=O)cc1 (stereo not given) |
| > 37.8 | O=C(O)/C=C\C(=O)Nc1cc(O)ccc1[N+](=O)[O-] |
| 30 (≈ 127 µM) | CC(=O)N(CCCN(C)C)Cc1ccccn1 |
| > 56.3 | Cc1cc(NS(=O)(=O)c2ccc(NC(=O)c3ccccc3F)cc2)no1 |
| 48.6 (≈ 147 µM) | Cc1ccc(CN2CCCC(CO)(Cc3ccccc3C)C2)s1 (stereo not given) |
| 35.2 (≈ 122 µM) | O=C(CSCc1cccc(F)c1)NCc1ccccc1 |
| < 0.4 | CC(=O)c1sc(NC(=O)c2ccc(F)cc2)nc1-c1ccccc1 |
| 41.6 (≈ 144 µM) | CC1(C)CC2CC(C)(CN2C(=S)Nc2ccccc2)C1 (stereo not given) |
| 0.9 (≈ 2.7 µM) | CC(C)(C)C(=O)NC(c1ccccc1)c1c(O)ccc2ccccc12 (stereo not given) |
| > 52.7 | CCC(=O)Nc1nc(NCc2ccccc2OC)n(-c2ccccc2)n1 |
| > 43.8 | CN(C)c1ccc(NC(=O)C[n+]2ccccc2)cc1.[Cl-] |
| 40.7 (≈ 124 µM) | OCC1(Cc2ccccc2F)CCCN(CCc2ccccc2)C1 (stereo not given) |
| < 0.7 | O=C1/C(=C/c2cccc(O)c2)SC(=S)N1CC1CCCO1 (stereo not given) |
| 22 (≈ 93.5 µM) | NC(=O)C1CC12c1ccccc1-c1ccccc12 (stereo not given) |
| 6.7 (≈ 18.4 µM) | CN1CCN(c2ccc(CNS(=O)(=O)c3cccc(F)c3)cc2)CC1 |
| > 31.8 | Cn1cnnc1SCC(=O)NC1CC1 |
| 29.6 (≈ 127 µM) | c1ccc(OCCCCN2CCCCC2)cc1 |
| 0.5 (≈ 1.62 µM) | Cc1cccc(C)c1NC(=O)c1c(O)c2ccccc2[nH]c1=O |
| 42 (≈ 146 µM) | CN(C)C(=O)C(NC(=O)c1ccccc1)=C(Cl)Cl |
| 31.6 (≈ 111 µM) | COc1ccc2oc(C(=O)NCc3ccco3)c(C)c2c1 |
| 2.8 (≈ 9.74 µM) | CC(C)CNC(=S)NC(=O)c1csc([N+](=O)[O-])c1 |
| > 45.6 | NC(=O)[C@@H]1CCCN1Cc1nc(Cc2ccccc2F)no1 |
| 3.6 (≈ 11.8 µM) | Cc1cc(C(=O)OCC(=O)c2ccccc2)c2ccccc2n1 |

| Structure (SMILES) | solubility kinetic [µg/mL] |
| --- | --- |
| C(#CCN1CCCCC1)COCc1ccccc1.Cl | 39 |
| c1ccc(NC2=NCCS2)cc1 | 23.5 (≈ 132 µM) |
| CC(C)CN1CCN(Cc2cccc3c2OCO3)CC1CCO (stereo not given) | > 48.1 |
